Data published in patent US10993895B2, “Composition obtainable by passing singlet oxygen through extra virgin olive oil” (priority 2017, dated 2021).

Tests used:
MRSA 10 = test: Infected incised wound of rats, MRSA 10; type: in vivo, Rattus Norvegicus; details: wound infected with MRSA 10; 6 rats
Procedure: (§1) Effectivity Study on Infected Incised Wound of Rattus Norvegicus Experimental Research on Animal Testing
(§2) Method: Solution Preparation Protocol for Infected Incised Wound
(§3) Preparing the solution with these following steps:
(§4) 1. Bacteria from the infected patient clinical isolate is planted on the media by streaking at for quadrant
(§5) 2. The isolated bacteria in separated colonies are dissolved in the tube that contain pz liquid
(§6) 3. In order to analyze the cloudness level of the solution on the tube, nephelometer is used to figure the cloudness level to 0.50 McFarland.
(§7) 4. 0.5 McFarland is equal to 1.5×10^8 CFU bacteria.
(§8) Infected Incised Wound Preparation Protocol on Animals
(§9) 1. Preparation of animals:
(§10) 1. Inject the animals with anesthesia drug containing ketamine hydrochloride, 0.1-0.2 ml
(§11) 2. Place them back into the cage while waiting them to be fully unconscious as the effect of the drug.
(§12) 3. Shave the back hair of the animals with razor blade.
(§13) 4. Give antiseptics, i.e. povidone iodine and alcohol. Wait for three minutes.
(§14) 5. Make a 2-cm long incision on the animal's back. Should any bleeding occurred, wipe with cotton.
(§15) 6. Swipe the incised spot with the bacteria solution using a cotton bud.
(§16) 7. Cover the spot with gauze bandage and stick it with plaster.
8. […]
(§17) The tissue's processing is started after the fixation completed. […] Remove from the oven and leave it in room temperature, then the tissue is ready to dye. […]

MRSA 6 = test: Infected incised wound of rats, MRSA 6; type: in vivo, Rattus Norvegicus; details: wound infected with MRSA 6; 6 rats
Procedure: as §1, §2, §3, §4, §5, §6, §7, §8, §9, §10, §11, §12, §13, §14, §15, §16
8. […]
as §17

[1] = tested on: Incised Wound Rattus Norvegicus; test: Acute toxicity study on incised wound healing in rats; type: in vivo; set-up: Neo vascularization: key to the marks not given beside the values
Procedure: Research Protocol: Acute Toxicity Study on the Incised Wound healing Rattus Norvegicus In Vivo research on animals
as §9
1. Inject the animals with anesthesia drug containing ketamine hydrochloride, 0.1-0.2 ml as illustrated in 101 of FIG. 1.
2. Place them back into the cage while waiting them fully unconscious as the effect of the drug.
as §12
4. Give antiseptics, i.e. povidone iodine and alcohol. Wait for three minutes as illustrated in 102 of FIG. 1.
5. Make a 2-cm long incision on the animal's back as illustrated in 103 of FIG. 1. Should any bleeding occurred, wipe with cotton.
6. Apply cotton bud ton the incision spot.
7. Cover the spot with gauze bandage and stick it with plaster as illustrated in 104 of FIG. 1.
8. Place the animal back in to the cage.
2. Fixation Tissue Protocol
The skin organs from treatment and control group are taken after the incision, then put them to the bottles containing fixation solution, and give labels. The intensions of the fixation are:
3. Tissue Processing Protocol/Paraffin Block
The tissue's processing is started after the fixation completed. The steps of this process are dehydration, clearing, and impregnation/embedding. […] Afterward, do the clearing by place the tissue into xylol. Then, do the impregnation/embedding by using paraffin. The detail of this process is as follows: After the fixation is completed, the tissues are placed into the following solution, consecutively. 1. Alcohol 70%: - 2. Alcohol 80% 1 hour 3. Alcohol 95%: 2 hour 4. Alcohol 95%: 1 hour 5. Alcohol 100%: 1 hour 6. Alcohol 100%: 1 hour 7. Alcohol 100%: 1 hour 8. Xylol: 1 hour 9. Xylol: 1 hour 10. Xylol: 2 hour 11. Paraffin (56-58° C.): 2 hour 12. Paraffin (56-58° C.) 2 hour 13. Paraffin (56-58° C.) 2 hour
4. Tissue Slicing and Attaching Process on object glass Protocol.
5. Hematoxilin Eosin Dyeing Protocol
The steps of HE dyeing method are:
This research use 24 Rats divided into 4 groups of treatment; they are Vaseline, Sibro, Gentamicin and Test. Composition. Each group has 6 rats.
2. […] After then stopped the bleeding, applied Vaseline, Sibro, Gentamicin and Test Composition to each group. Application of Vaseline (201), Sibro (202), Gentamicin (203) and Test Composition (204) are illustrated in FIG. 2.
There are 4 parameters in observing incised wound microscopically, they are Epithelization, Fibroplasia, Neovascularization, and scar.

[2] = incised wound, microscopic (HE), after 7 days

Molecule	Dead Rats (MRSA 10)	Survival (MRSA 10)	Dead Rats (MRSA 6)	Survival (MRSA 6)	Wound condition on day −7 (macroscopic) ([1]; incised wound, macroscopic condition)	Epitheliazation [1, 2]	Fibroplasia [1, 2]	Neo vascularization [1, 2]	Scar [1, 2]	Dead Rats ([1]; substance applied on 2-cm incised wound, 6 rats per group, up to day 7)	Survival on day −7 ([1]; substance applied on 2-cm incised wound, survivors/6 rats)
C/C(=C\C(=O)OCCCCCCCCC(=O)O)C[C@@H]1OC[C@H](C[C@@H]2O[C@H]2[C@@H](C)[C@H](C)O)[C@@H](O)[C@H]1O [mupirocine, Mupirocin]	0	6	0	6	–	–	–	–	–	–	–
Gentamicin [Gentamisin]	–	–	–	–	Closing (with 1 granulation)	+	+	++	+	0	6/6
